± gives the expanded uncertainty stated by the source.
Conditions: Liquid, Closed cell (Static) method

SMILES	vapor or sublimation pressure (258.15 K) [kPa]	vapor or sublimation pressure (263.15 K) [kPa]	vapor or sublimation pressure (273.15 K) [kPa]	vapor or sublimation pressure (283.15 K) [kPa]
FC(F)C(F)F [1,1,2,2-tetrafluoroethane]	124.3 ± 1.1	153 ± 1.1	225.9 ± 1.2	323.4 ± 1.5
FC(F)(F)I [trifluoroiodomethane]	133 ± 1.1	160.4 ± 1.1	228.4 ± 1.2	316.4 ± 1.4

Reference: the NIST ThermoML archive (doi:10.1016/j.fluid.2011.11.013)
